In patent US9908912B2, “Triclosan derivatives and uses thereof” (priority 2012, dated 2018):
Values after ≈ are worked out from the molar mass of the structure shown.

Legend:
E. coli = experiment: MIC in Nutrient Agar; type: cell-based, Escherichia coli; details: 8 strains; Nutrient Agar containing 0.1 μg/ml of inducer; 37° C., 24 hours
Procedure: (§1) The triclosan-glycosides were added to Nutrient Agar (Oxoid CM0003; Thermofisher Scientific) and organisms were transferred onto the plates surface using a multi-point inoculation device (Oxoid Cathra, Thermofisher Scientific). The latter is essentially a metal plate containing a number of needles. Each needle tip (usually 36 per plate) dips into an organism suspension (in phosphate buffered saline; PBS) and the needles are then moved over the agar plate and lowered onto its surface. In this way the growth of colonies of up to 36 different organisms can be observed on one plate.
(§2) Nutrient Agar No. 2 was prepared according to the manufacturers instructions, autoclaved and cooled to 50° C. Test compounds were then added as filter sterilised solutions (50:50 deionised water:ethanol), to give final concentrations from 256 μg/ml to 0 μg/ml in doubling dilutions. […] The mixtures were swirled then four plates (25 ml molten agar) were poured for each concentration. Plates were dried in a laminar flow cabinet then inoculated with overnight cultures of organisms that had been decimally diluted twice in sterile saline solution (approximately 10^7 cfu/ml) using a multi-point inoculator. Plates were then incubated at 37° C. for 24 hours. MICs were determined as the concentration at which no growth was observed.

Ent. cloacae = experiment: MIC in Nutrient Agar; type: cell-based, Enterobacter cloacae; details: Nutrient Agar containing 0.1 μg/ml of inducer; 37° C., 24 hours
Procedure: as §1, §2

E. hermanii = experiment: MIC in Nutrient Agar; type: cell-based, Escherichia hermanii; details: Nutrient Agar containing 0.1 μg/ml of inducer; 37° C., 24 hours
Procedure: as §1, §2

Staph. epidermidis = experiment: MIC in Nutrient Broth No. 2; type: cell-based, Staphylococcus epidermidis; details: 3 strains, Nutrient Broth No. 2
Procedure: (§3) Bacteria species as indicated in Table 1 were incubated for approximately 24 hours at 37° C.
(§4) The tests were repeated with the addition of inducers. Methyl glycoside was the main inducer used, but other suitable inducers include isopropyl-β-D-thiogalactopyranoside, p-nitrophenyl-α-L-arabinopyranoside and p-nitrophenyl-β-D-xylopyranoside. Concentration of inducer in all cases was 100 μg/ml.

Aer. hydrophila = experiment: MIC in Nutrient Agar; type: cell-based, Aeromonas hydrophila; details: Nutrient Agar containing 0.1 μg/ml of inducer; 37° C., 24 hours
Procedure: as §1, §2

[1] = system: Kleb. pneumoniae ATCC 10031; experiment: MIC in Nutrient Broth No. 2; type: cell-based, Klebsiella pneumoniae; details: Nutrient Broth No. 2
Procedure: as §3, §4

S. aureus = experiment: MIC in Nutrient Agar; type: cell-based, Staphylococcus aureus; details: 8 strains; Nutrient Agar containing 0.1 μg/ml of inducer; 37° C., 24 hours
Procedure: as §1, §2

[2] = system: Strep. pneumoniae ATCC 6305; experiment: MIC in Nutrient Broth No. 2; type: cell-based, Streptococcus pneumoniae; details: Nutrient Broth No. 2
Procedure: as §3, §4

[3] = system: Staph. saprophyticus ATCC 15305; experiment: MIC in Nutrient Broth No. 2; type: cell-based, Staphylococcus saprophyticus; details: Nutrient Broth No. 2
Procedure: as §3, §4

[4] = system: Enterococcus faecium ATCC 19434; experiment: MIC in Nutrient Broth No. 2; type: cell-based; details: Nutrient Broth No. 2
Procedure: as §3, §4

Strep. viridans OCC 234 = experiment: MIC in Nutrient Broth No. 2; type: cell-based, Streptococcus viridans; details: Nutrient Broth No. 2
Procedure: as §3, §4

Ent. aerogenes = experiment: MIC in Nutrient Agar; type: cell-based, Enterobacter aerogenes; details: Nutrient Agar containing 0.1 μg/ml of inducer; 37° C., 24 hours
Procedure: as §1, §2

[5] = system: Crono. sakazakii ATCC 29544; experiment: MIC in Nutrient Broth No. 2; type: cell-based, Cronobacter sakazakii; details: Nutrient Broth No. 2
Procedure: as §3, §4

Cr. sakazakii = experiment: MIC in Nutrient Agar; type: cell-based, Cronobacter sakazakii; details: Nutrient Agar containing 0.1 μg/ml of inducer; 37° C., 24 hours
Procedure: as §1, §2

Ent. faecium = experiment: MIC in Nutrient Agar; type: cell-based, Enterococcus faecium; details: Nutrient Agar containing 0.1 μg/ml of inducer; 37° C., 24 hours
Procedure: as §1, §2

Ent. faecalis = experiment: MIC in Nutrient Agar; type: cell-based, Enterococcus faecalis; details: Nutrient Agar containing 0.1 μg/ml of inducer; 37° C., 24 hours
Procedure: as §1, §2

S. epidermidis = experiment: MIC in Nutrient Agar; type: cell-based, Staphylococcus epidermidis; details: 3 strains; Nutrient Agar containing 0.1 μg/ml of inducer; 37° C., 24 hours
Procedure: as §1, §2

Str. pneumoniae = experiment: MIC in Nutrient Agar; type: cell-based, Streptococcus pneumoniae; details: Nutrient Agar containing 0.1 μg/ml of inducer; 37° C., 24 hours
Procedure: as §1, §2

Kleb. pneumoniae = experiment: MIC in Nutrient Agar; type: cell-based, Klebsiella pneumoniae; details: Nutrient Agar containing 0.1 μg/ml of inducer; 37° C., 24 hours
Procedure: as §1, §2

[6] = system: Bacteria species as indicated in Table 1; experiment: MIC in Nutrient Broth No. 2 (over organisms of Table 1); type: cell-based; details: all strains of Citrobacter freundii, Enterobacter cloacae, Escherichia coli, Escherichia hermanii, Hafnia alvei, Klebsiella, Proteus, Salmonella, Staphylococcus
Procedure: as §3, §4

| Structure (SMILES) | MIC (E. coli) | MIC (Ent. cloacae) | MIC (E. hermanii) | MIC (Staph. epidermidis; with inducer 100 μg/ml) | MIC (Staph. epidermidis; without inducer) | MIC (Aer. hydrophila) | MIC ([1]; with inducer 100 μg/ml) | MIC ([1]; without inducer) | MIC (S. aureus) | MIC ([2]; with inducer 100 μg/ml) | MIC ([2]; without inducer) | MIC ([3]; with inducer 100 μg/ml) | MIC ([3]; without inducer) | MIC ([4]; with inducer 100 μg/ml) | MIC ([4]; without inducer) | MIC (Strep. viridans OCC 234; with inducer 100 μg/ml) | MIC (Strep. viridans OCC 234; without inducer) | MIC (Ent. aerogenes) | MIC ([5]; with inducer 100 μg/ml) | MIC ([5]; without inducer) | also measured |
| --- | --- | --- | --- | --- | --- | --- | --- | --- | --- | --- | --- | --- | --- | --- | --- | --- | --- | --- | --- | --- | --- |
| OC[C@H]1O[C@H](Oc2cc(Cl)ccc2Oc2ccc(Cl)cc2Cl)[C@@H](O)[C@@H](O)[C@@H]1O [α-D-Mannoside, triclosan-α-D-mannopyranoside] | 8 to 64 µg/mL | 16 µg/mL (≈ 35.4 µM) | 16 µg/mL (≈ 35.4 µM) | 4 to 8 µg/mL | 4 to 8 µg/mL | 256 µg/mL (≈ 567 µM) | 2 µg/mL (≈ 4.43 µM) | 4 µg/mL (≈ 8.86 µM) | 4 to 8 µg/mL | 128 µg/mL (≈ 283 µM) | 64 µg/mL (≈ 142 µM) | 32 µg/mL (≈ 70.8 µM) | 32 µg/mL (≈ 70.8 µM) | 256 µg/mL (≈ 567 µM) | 256 µg/mL (≈ 567 µM) | 128 µg/mL (≈ 283 µM) | 128 µg/mL (≈ 283 µM) | 64 µg/mL (≈ 142 µM) | 32 µg/mL (≈ 70.8 µM) | 128 µg/mL (≈ 283 µM) | MIC (Cr. sakazakii): 64 µg/mL (≈ 142 µM); MIC (Ent. faecium): 256 µg/mL (≈ 567 µM); MIC (Ent. faecalis): 256 µg/mL (≈ 567 µM); MIC (S. epidermidis): 8 µg/mL (≈ 17.7 µM); MIC (Str. pneumoniae): 64 µg/mL (≈ 142 µM); MIC (Kleb. pneumoniae): 16 µg/mL (≈ 35.4 µM); inhibition of growth at 64 μg/ml in Nutrient Broth [6]: inhibited |
| O[C@@H]1[C@H](Oc2cc(Cl)ccc2Oc2ccc(Cl)cc2Cl)OC[C@@H](O)[C@H]1O [β-D-Arabinoside, triclosan-β-D-arabinopyranoside] | 8 to 32 µg/mL | 16 µg/mL (≈ 37.9 µM) | 32 µg/mL (≈ 75.9 µM) | 4 to 64 µg/mL | 8 to 16 µg/mL | 256 µg/mL (≈ 607 µM) | 8 µg/mL (≈ 19 µM) | 4 µg/mL (≈ 9.49 µM) | 8 to 16 µg/mL | 64 µg/mL (≈ 152 µM) | 64 µg/mL (≈ 152 µM) | 64 µg/mL (≈ 152 µM) | 64 µg/mL (≈ 152 µM) | 256 µg/mL (≈ 607 µM) | 256 µg/mL (≈ 607 µM) | 128 µg/mL (≈ 304 µM) | 128 µg/mL (≈ 304 µM) | 64 µg/mL (≈ 152 µM) | 64 µg/mL (≈ 152 µM) | 128 µg/mL (≈ 304 µM) | MIC (Cr. sakazakii): 256 µg/mL (≈ 607 µM); MIC (Ent. faecium): 256 µg/mL (≈ 607 µM); MIC (Ent. faecalis): 256 µg/mL (≈ 607 µM); MIC (S. epidermidis): 16 µg/mL (≈ 37.9 µM); MIC (Str. pneumoniae): 64 µg/mL (≈ 152 µM); MIC (Kleb. pneumoniae): 8 µg/mL (≈ 19 µM) |
| OC[C@H]1O[C@H](Oc2cc(Cl)ccc2Oc2ccc(Cl)cc2Cl)[C@H](O)[C@@H](O)[C@@H]1O [α-D-Glucoside, triclosan-α-D-glucopyranoside] | 0.5 to 4 µg/mL | 1 µg/mL (≈ 2.21 µM) | 1 µg/mL (≈ 2.21 µM) | 1 µg/mL (≈ 2.21 µM) | 1 µg/mL (≈ 2.21 µM) | 128 µg/mL (≈ 283 µM) | 1 µg/mL (≈ 2.21 µM) | 1 µg/mL (≈ 2.21 µM) | 0.25 to 1 µg/mL | 16 µg/mL (≈ 35.4 µM) | 32 µg/mL (≈ 70.8 µM) | 4 µg/mL (≈ 8.86 µM) | 4 µg/mL (≈ 8.86 µM) | 256 µg/mL (≈ 567 µM) | 256 µg/mL (≈ 567 µM) | 64 µg/mL (≈ 142 µM) | 128 µg/mL (≈ 283 µM) | 4 µg/mL (≈ 8.86 µM) | 4 µg/mL (≈ 8.86 µM) | 8 µg/mL (≈ 17.7 µM) | MIC (Cr. sakazakii): 4 µg/mL (≈ 8.86 µM); MIC (Ent. faecium): 128 µg/mL (≈ 283 µM); MIC (Ent. faecalis): 128 µg/mL (≈ 283 µM); MIC (S. epidermidis): 0.5 to 1 µg/mL; MIC (Str. pneumoniae): 32 µg/mL (≈ 70.8 µM); MIC (Kleb. pneumoniae): 0.5 µg/mL (≈ 1.11 µM) |
